Measured values taken from patent publication US10266526B2, “Substituted 1,2,3-triazoles as SMYD inhibitors for treating cancer” (EPIZYME, INC., priority 2014, dated 2019).

These molecules were tested against SMYD3 (Homo sapiens (Human), UniProt Q9H7B4) (assay: SMYD3 biochemical assay (SMYD3 enzyme assay on MEKK2 protein substrate, 3H-SAM scintillation proximity assay)). Details: Table 1A; average of n = 1 to n = 50; read-out: SMYD3 Biochem IC50.
SMYD3, sequence (Q9H7B4 whole entry): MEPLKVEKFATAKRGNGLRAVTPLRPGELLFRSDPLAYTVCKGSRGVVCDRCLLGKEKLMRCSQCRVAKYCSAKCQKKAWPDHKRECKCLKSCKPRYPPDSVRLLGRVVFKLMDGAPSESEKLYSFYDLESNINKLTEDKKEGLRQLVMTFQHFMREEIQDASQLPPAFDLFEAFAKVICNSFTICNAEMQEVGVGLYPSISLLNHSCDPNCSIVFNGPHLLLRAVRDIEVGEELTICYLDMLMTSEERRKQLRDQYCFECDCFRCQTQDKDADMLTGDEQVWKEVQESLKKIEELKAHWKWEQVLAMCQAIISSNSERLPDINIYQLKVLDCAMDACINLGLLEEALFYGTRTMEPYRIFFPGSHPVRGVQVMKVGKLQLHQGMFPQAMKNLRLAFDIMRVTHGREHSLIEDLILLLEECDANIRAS
Summary of the method: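 Native full-length human SMYD3, expressed in E. coli, was preincubated with compound for 30 min at room temperature in 25 mM Tris-Cl pH 8.0, 1 mM TCEP, 0.005% BSG and 0.005% Tween 20. ³H-SAM plus GST-MEKK2 then started the reaction. It was stopped with unlabeled SAM (100 uM final), and methylated MEKK2 was read by SPA.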
Molecule `NCCC(=O)N[C@H]1CC[C@H](NC(=O)c2cc3cc(Br)ccc3nc2O)CC1` [compound 566, N-((1r,4r)-4-(3-aminopropanamido)cyclohexyl)-6-bromo-2-hydroxyquinoline-3-carboxamide] has an IC50 greater than 10 µM.
Molecule `Nc1nc(C(=O)N[C@H]2CC[C@H](N)CC2)c[nH]1` [compound 572, 2-amino-N-((1r,4r)-4-aminocyclohexyl)-1H-imidazole-4-carboxamide] has an IC50 greater than 10 µM.
For `N[C@H]1CC[C@H](NC(=O)c2cnc3ncccn23)CC1` [compound 574, N-((1r,4r)-4-aminocyclohexyl)imidazo[1,2-a]pyrimidine-3-carboxamide], the IC50 was greater than 10 µM.

What follows are molecules tested against SMYD2 (Homo sapiens (Human), UniProt Q9NRG4) (assay: SMYD2 biochemical assay (SMYD2 enzyme assay on peptide substrate, 3H-SAM Flashplate)). Details: not given.
SMYD2, sequence (Q9NRG4 whole entry): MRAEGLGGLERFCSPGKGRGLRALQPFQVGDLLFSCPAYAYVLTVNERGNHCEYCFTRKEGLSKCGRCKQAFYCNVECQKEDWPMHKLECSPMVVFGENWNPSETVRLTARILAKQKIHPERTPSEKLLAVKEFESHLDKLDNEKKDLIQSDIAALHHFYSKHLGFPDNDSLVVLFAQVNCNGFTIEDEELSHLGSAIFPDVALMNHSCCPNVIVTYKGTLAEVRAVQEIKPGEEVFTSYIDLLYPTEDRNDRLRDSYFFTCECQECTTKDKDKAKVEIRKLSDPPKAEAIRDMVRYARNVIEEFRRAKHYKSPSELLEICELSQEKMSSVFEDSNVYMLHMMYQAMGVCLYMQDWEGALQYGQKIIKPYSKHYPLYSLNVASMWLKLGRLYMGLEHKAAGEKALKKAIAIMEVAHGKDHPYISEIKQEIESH
`C[C@H](c1ccccc1)N1C[C@@H](NC(=O)c2cn(C3CC3)nn2)C1(C)C` (racemic) [compound 984, rac-1-cyclopropyl-N-((R)-2,2-dimethyl-1-((R)-1-phenylethyl)azetidin-3-yl)-1H-1,2,3-triazole-4-carboxamide] gave an IC50 of 18900 nM.
In the case of `C[C@@H](c1ccccc1)N1C[C@@H](NC(=O)c2cn(C3CC3)nn2)C1(C)C` (racemic) [compound 1026, rac-1-cyclopropyl-N-((R)-2,2-dimethyl-1-((S)-1-phenylethyl)azetidin-3-yl)-1H-1,2,3-triazole-4-carboxamide], the IC50 is reported as 910 nM.
For `C[C@H](c1cccc(OCCO)c1Cl)N1CC(NC(=O)c2cn(C3CC3)nn2)C1` (single isomer, unassigned) [compound 832], the IC50 was 14300 nM.

Same assay, conditions: SMYD2 Biochem IC50, IC50 values are an average of n = 1 to n = 50
With `C[C@@H](c1ccc(OCc2ccccc2)cc1)N1CC(NC(=O)c2cn(C3CC3)nn2)C1` (single isomer, unassigned) [compound 778] the IC50 was 84.5 nM.
`C[C@H](c1ccc(OCc2ccccc2)cc1)N1CC(NC(=O)c2cn(C3CC3)nn2)C1` (single isomer, unassigned) [compound 788] showed an IC50 of 414 nM.

Same assay, conditions: read-out: SMYD2 Biochem IC50; IC50 values are an average of n = 1 to n = 50
In the case of `C[C@@H](c1cccc(OCCO)c1Cl)N1CC(NC(=O)c2cn(C3CC3)nn2)C1` (single isomer, unassigned) [compound 831], the IC50 is reported as 57.8 nM.
`CC(C)N1CC(NC(=O)c2cc(C3CC3)cnn2)C1` [compound 645, 5-cyclopropyl-N-[1-(propan-2-yl)azetidin-3-yl]pyridazine-3-carboxamide] gave an IC50 of 745 nM.
For `C[C@@H](c1ccccc1)N1CC(NC(=O)c2cc(C3CC3)cnn2)C1` [compound 646, 5-cyclopropyl-N-{1-[(1S)-1-phenylethyl]azetidin-3-yl}pyridazine-3-carboxamide], the IC50 was 516 nM.
In the case of `C[C@H](c1ccccc1)N1CC(NC(=O)c2cc(C3CC3)cnn2)C1` [compound 647, 5-cyclopropyl-N-{1-[(1R)-1-phenylethyl]azetidin-3-yl}pyridazine-3-carboxamide], the IC50 is reported as 7800 nM.
Molecule `Cn1cnc(CN2CC(NC(=O)c3cc(C4CC4)cnn3)C2)c1Cl` [compound 648, N-{1-[(5-chloro-1-methyl-1H-imidazol-4-yl)methyl]azetidin-3-yl}-5-cyclopropylpyridazine-3-carboxamide] has an IC50 of 7330 nM.
`CC(c1cc(Cl)ccc1Cl)N1CC(NC(=O)c2cc(C3CC3)cnn2)C1` (centres unmarked) [compound 649, 5-cyclopropyl-N-{1-[1-(2,5-dichlorophenyl)ethyl]azetidin-3-yl}pyridazine-3-carboxamide] showed an IC50 of 140 nM.
Work on `COc1c(OCCO)cccc1C(C)N1CC(NC(=O)c2cc(C3CC3)cnn2)C1` (centres unmarked) [compound 650, 5-cyclopropyl-N-(1-{1-[3-(2-hydroxyethoxy)-2-methoxyphenyl]ethyl}azetidin-3-yl)pyridazine-3-carboxamide] yielded an IC50 of 312 nM.
In the case of `O=C(NC1CN(Cc2ccccc2)C1)c1cc(C2CC2)cnn1` [compound 651, N-(1-benzylazetidin-3-yl)-5-cyclopropylpyridazine-3-carboxamide], the IC50 is reported as 541 nM.
Molecule `CC(c1cccc(OCCO)c1Cl)N1CC(NC(=O)c2cc(C3CC3)cnn2)C1` (centres unmarked) [compound 652, N-(1-{1-[2-chloro-3-(2-hydroxyethoxy)phenyl]ethyl}azetidin-3-yl)-5-cyclopropylpyridazine-3-carboxamide] has an IC50 of 41.6 nM.
`O=C(NC1CNC1)c1cn(C2CC2)nn1` [compound 657, N-(azetidin-3-yl)-1-cyclopropyl-1H-1,2,3-triazole-4-carboxamide] was tested, and the IC50 was 10400 nM.
`CN1CC(NC(=O)c2cn(C3CC3)nn2)C1` [compound 659, 1-cyclopropyl-N-(1-methylazetidin-3-yl)-1H-1,2,3-triazole-4-carboxamide] gave an IC50 of 2840 nM.
For `CCCN1CC(NC(=O)c2cn(C3CC3)nn2)C1` [compound 660, 1-cyclopropyl-N-(1-propylazetidin-3-yl)-1H-1,2,3-triazole-4-carboxamide], the IC50 was 1170 nM.
`CC(C)N1CC(NC(=O)c2cn(C3CC3)nn2)C1` [compound 662, 1-cyclopropyl-N-[1-(propan-2-yl)azetidin-3-yl]-1H-1,2,3-triazole-4-carboxamide] was tested, and the IC50 was 846 nM.
Molecule `CC(C)N1CC(NC(=O)c2cn(C3CC3)nn2)C1` [compound 663, 1-cyclopropyl-N-[1-(propan-2-yl)azetidin-3-yl]-1H-1,2,3-triazole-4-carboxamide] has an IC50 of 585 nM.
In the case of `O=C(NC1CN(CC2CC2)C1)c1cn(C2CC2)nn1` [compound 665, 1-cyclopropyl-N-[1-(cyclopropylmethyl)azetidin-3-yl]-1H-1,2,3-triazole-4-carboxamide], the IC50 is reported as 2000 nM.
Work on `O=C(NC1CN(CC2COC2)C1)c1cn(C2CC2)nn1` [compound 666, 1-cyclopropyl-N-[1-(oxetan-3-ylmethyl)azetidin-3-yl]-1H-1,2,3-triazole-4-carboxamide] yielded an IC50 of 6060 nM.
With `COCCN1CC(NC(=O)c2cn(C3CC3)nn2)C1` [compound 667, 1-cyclopropyl-N-[1-(2-methoxyethyl)azetidin-3-yl]-1H-1,2,3-triazole-4-carboxamide] the IC50 was 2460 nM.
For `CC(C)CN1CC(NC(=O)c2cn(C3CC3)nn2)C1` [compound 668, 1-cyclopropyl-N-[1-(2-methylpropyl)azetidin-3-yl]-1H-1,2,3-triazole-4-carboxamide], the IC50 was 2750 nM.
In the case of `O=C(NC1CN(CC2CCC2)C1)c1cn(C2CC2)nn1` [compound 669, N-[1-(cyclobutylmethyl)azetidin-3-yl]-1-cyclopropyl-1H-1,2,3-triazole-4-carboxamide], the IC50 is reported as 1620 nM.
`O=C(NC1CN(CCO)C1)c1cn(C2CC2)nn1` [compound 670, 1-cyclopropyl-N-[1-(2-hydroxyethyl)azetidin-3-yl]-1H-1,2,3-triazole-4-carboxamide] gave an IC50 of 4530 nM.
For `O=C(NC1CN(Cc2ccccc2)C1)c1cn(C2CC2)nn1` [compound 671, N-(1-benzylazetidin-3-yl)-1-cyclopropyl-1H-1,2,3-triazole-4-carboxamide], the IC50 was 4210 nM.
Molecule `O=C(NC1CN(Cc2ccccc2)C1)c1cn(C2CC2)nn1` [compound 672, N-(1-benzylazetidin-3-yl)-1-cyclopropyl-1H-1,2,3-triazole-4-carboxamide] has an IC50 of 1550 nM.
For `O=C(NC1CN(CCc2ccccc2)C1)c1cn(C2CC2)nn1` [compound 673, 1-cyclopropyl-N-[1-(2-phenylethyl)azetidin-3-yl]-1H-1,2,3-triazole-4-carboxamide], the IC50 was 1550 nM.
For `O=C(NC1CN(C(CO)c2ccccc2)C1)c1cn(C2CC2)nn1` (centres unmarked) [compound 674, 1-cyclopropyl-N-[1-(2-hydroxy-1-phenylethyl)azetidin-3-yl]-1H-1,2,3-triazole-4-carboxamide], the IC50 was 4270 nM.
Molecule `CC(c1ccccc1F)N1CC(NC(=O)c2cn(C3CC3)nn2)C1` (centres unmarked) [compound 678, 1-cyclopropyl-N-{1-[1-(2-fluorophenyl)ethyl]azetidin-3-yl}-1H-1,2,3-triazole-4-carboxamide] has an IC50 of 907 nM.
In the case of `COc1cccc(C(C)N2CC(NC(=O)c3cn(C4CC4)nn3)C2)c1` (centres unmarked) [compound 679, 1-cyclopropyl-N-{1-[1-(3-methoxyphenyl)ethyl]azetidin-3-yl}-1H-1,2,3-triazole-4-carboxamide], the IC50 is reported as 1450 nM.
`CC(c1ccc(C(F)(F)F)cc1)N1CC(NC(=O)c2cn(C3CC3)nn2)C1` (centres unmarked) [compound 680, 1-cyclopropyl-N-(1-{1-[4-(trifluoromethyl)phenyl]ethyl}azetidin-3-yl)-1H-1,2,3-triazole-4-carboxamide] was tested, and the IC50 was greater than 50000 nM.
Work on `CCCCOc1ccc(C(C)N2CC(NC(=O)c3cn(C4CC4)nn3)C2)cc1` (centres unmarked) [compound 681, N-{1-[1-(4-butoxyphenyl)ethyl]azetidin-3-yl}-1-cyclopropyl-1H-1,2,3-triazole-4-carboxamide] yielded an IC50 of 1290 nM.
`CC(c1ccccc1OC(F)(F)F)N1CC(NC(=O)c2cn(C3CC3)nn2)C1` (centres unmarked) [compound 684, 1-cyclopropyl-N-(1-{1-[2-(trifluoromethoxy)phenyl]ethyl}azetidin-3-yl)-1H-1,2,3-triazole-4-carboxamide] showed an IC50 of 2130 nM.
Molecule `COCCCN1CC(NC(=O)c2cn(C3CC3)nn2)C1` [compound 686, 1-cyclopropyl-N-[1-(3-methoxypropyl)azetidin-3-yl]-1H-1,2,3-triazole-4-carboxamide] has an IC50 of 3760 nM.
In the case of `COc1ccc(CC(C)N2CC(NC(=O)c3cn(C4CC4)nn3)C2)cc1OC` (centres unmarked) [compound 688, 1-cyclopropyl-N-{1-[1-(3,4-dimethoxyphenyl)propan-2-yl]azetidin-3-yl}-1H-1,2,3-triazole-4-carboxamide], the IC50 is reported as 5100 nM.
For `COc1cc(F)ccc1C(C)N1CC(NC(=O)c2cn(C3CC3)nn2)C1` (centres unmarked) [compound 689, 1-cyclopropyl-N-{1-[1-(4-fluoro-2-methoxyphenyl)ethyl]azetidin-3-yl}-1H-1,2,3-triazole-4-carboxamide], the IC50 was 1890 nM.
With `COc1ccc(C(F)(F)F)cc1C(C)N1CC(NC(=O)c2cn(C3CC3)nn2)C1` (centres unmarked) [compound 690, 1-cyclopropyl-N-(1-{1-[2-methoxy-5-(trifluoromethyl)phenyl]ethyl}azetidin-3-yl)-1H-1,2,3-triazole-4-carboxamide] the IC50 was 7990 nM.
